# Laboratory results: ChEMBL document CHEMBL1121976, “Structure-activity relationships for hallucinogenic N,N-dialkyltryptamines: photoelectron spectra and serotonin receptor affinities of methylthio and methylenedioxy derivatives” (J Med Chem, 1982)
# Species: Rattus norvegicus
# Assay: The ability to inhibit the 5-HT-induced contraction of isolated rat fundus muscle was determined
# Type: functional
# Settings: read-out: pA2 (converted)
row,SMILES,Kb [nM]
1,CN(C)CCc1c[nH]c2ccc3c(c12)OCO3,398
2,CSc1cccc2[nH]cc(CCN(C)C)c12,617
3,COc1ccc2c(CCN(C)C)c[nH]c2c1,1700
4,CN(C)CCc1c[nH]c2cc3c(cc12)OCO3,1020
5,CSc1ccc2[nH]cc(CCN(C)C)c2c1,145
6,"CN(C)CCc1c[nH]c2ccccc12 [N,N-DIMETHYLTRYPTAMINE]",1000
7,COc1cccc2[nH]cc(CCN(C)C)c12,676
8,CSc1ccc2c(CCN(C)C)c[nH]c2c1,1200
9,COc1ccc2[nH]cc(CCN(C)C)c2c1 [MEBUFOTENIN],83.2
